Assay results published in patent US12595253B2, “Benzamides of pyrazolylamino-pyrimidinyl derivatives, and compositions and methods thereof” (LYNK PHARMACEUTICALS CO. LTD., priority 2019, dated 2026).
pIC50: −log10 of the molar value.

Columns and labels:
Type in all cases: biochemical
JAK1 = target: T1, JAK1 (Homo sapiens, UniProt P23458); experiment: JAK1 microfluidic kinase assay (Caliper EZ Reader II, FAM labeled peptide substrate); conditions: IC50 JAK1 (5 nM) (1 m MATP), JAK1 5 nM, 1 mM ATP
T1 construct: purchased Carna Biosciences
T1 sequence (P23458 whole entry): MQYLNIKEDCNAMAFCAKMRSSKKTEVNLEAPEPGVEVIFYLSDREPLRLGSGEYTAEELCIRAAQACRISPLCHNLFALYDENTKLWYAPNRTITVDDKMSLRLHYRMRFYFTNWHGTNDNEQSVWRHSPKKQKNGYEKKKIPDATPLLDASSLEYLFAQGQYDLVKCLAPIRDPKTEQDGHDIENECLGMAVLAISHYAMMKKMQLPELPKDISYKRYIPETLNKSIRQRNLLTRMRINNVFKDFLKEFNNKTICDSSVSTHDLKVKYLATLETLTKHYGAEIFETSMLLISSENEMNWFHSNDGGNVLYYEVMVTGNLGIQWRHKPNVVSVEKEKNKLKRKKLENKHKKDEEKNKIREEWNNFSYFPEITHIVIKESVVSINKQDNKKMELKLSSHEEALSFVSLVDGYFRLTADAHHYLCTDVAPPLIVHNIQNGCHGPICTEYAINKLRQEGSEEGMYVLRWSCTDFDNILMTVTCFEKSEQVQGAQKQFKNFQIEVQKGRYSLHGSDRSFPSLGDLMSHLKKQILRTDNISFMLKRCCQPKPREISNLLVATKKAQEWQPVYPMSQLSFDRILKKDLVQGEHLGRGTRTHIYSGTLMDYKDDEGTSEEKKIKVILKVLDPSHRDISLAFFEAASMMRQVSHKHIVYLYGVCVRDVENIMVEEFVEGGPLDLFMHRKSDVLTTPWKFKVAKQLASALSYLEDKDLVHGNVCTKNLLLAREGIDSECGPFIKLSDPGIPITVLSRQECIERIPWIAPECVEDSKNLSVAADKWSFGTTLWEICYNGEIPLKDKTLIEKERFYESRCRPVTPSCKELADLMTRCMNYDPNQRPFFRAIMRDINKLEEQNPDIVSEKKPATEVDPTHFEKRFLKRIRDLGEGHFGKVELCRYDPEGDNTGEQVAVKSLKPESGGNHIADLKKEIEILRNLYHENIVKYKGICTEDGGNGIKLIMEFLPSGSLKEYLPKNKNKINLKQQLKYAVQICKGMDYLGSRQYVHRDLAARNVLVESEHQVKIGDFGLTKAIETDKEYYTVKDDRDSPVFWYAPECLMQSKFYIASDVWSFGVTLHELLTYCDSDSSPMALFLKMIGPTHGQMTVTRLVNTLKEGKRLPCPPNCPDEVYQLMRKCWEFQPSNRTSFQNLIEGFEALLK
Description: (§1) Compounds were tested against JAK1, JAK2, JAK2V617F and TYK2. Assay Formats: JAK activity was determined in the reaction buffer 50 mM HEPES, 0.01% Brij35, 10 mM MgCl2, 2 mM DTT by a microfluidic assay. The phosphorylation of a FAM labeled peptide substrate was monitored in the Caliper EZ Reader II (Perkin Elmer). The assay condition for each batch of enzyme (Carna Biosciences) was optimized to obtain 10% conversion rate of peptide substrate. The test compounds were dissolved in DMSO to a stock concentration of 10 mM. 3-fold serially diluted compounds with top concentration of 5 μM were pre-incubated with JAK1, JAK2, JAK2V617F or TYK2 at indicated concentrations for 10 min at ambient temperature. The final DMSO concentration of assay mixture was 1%. […] The reaction was stopped by adding 50 mM EDTA. […] The percent inhibition was calculated by the following formula. % Inhibition=(Conversionmax−Conversionsample)/(Conversionmax−Conversionmin)*100 • Conversionmax means the conversion rate in the positive well without addition of compound • Conversionmin means the conversion rate in the well without addition of enzyme • Conversionsample means the conversion rate of test compounds The dose-response (percent inhibition) curve was plotted and IC50 values were determined by GraphPad software.

JAK2V617F = target: T2, JAK2V617F (Homo sapiens, UniProt O60674, V617F); experiment: JAK2V617F microfluidic kinase assay (Caliper EZ Reader II, FAM labeled peptide substrate); conditions: JAK2V617F 2.5 nM, 1 mM ATP
T2 construct: purchased Carna Biosciences
T2 sequence (O60674 whole entry V617F): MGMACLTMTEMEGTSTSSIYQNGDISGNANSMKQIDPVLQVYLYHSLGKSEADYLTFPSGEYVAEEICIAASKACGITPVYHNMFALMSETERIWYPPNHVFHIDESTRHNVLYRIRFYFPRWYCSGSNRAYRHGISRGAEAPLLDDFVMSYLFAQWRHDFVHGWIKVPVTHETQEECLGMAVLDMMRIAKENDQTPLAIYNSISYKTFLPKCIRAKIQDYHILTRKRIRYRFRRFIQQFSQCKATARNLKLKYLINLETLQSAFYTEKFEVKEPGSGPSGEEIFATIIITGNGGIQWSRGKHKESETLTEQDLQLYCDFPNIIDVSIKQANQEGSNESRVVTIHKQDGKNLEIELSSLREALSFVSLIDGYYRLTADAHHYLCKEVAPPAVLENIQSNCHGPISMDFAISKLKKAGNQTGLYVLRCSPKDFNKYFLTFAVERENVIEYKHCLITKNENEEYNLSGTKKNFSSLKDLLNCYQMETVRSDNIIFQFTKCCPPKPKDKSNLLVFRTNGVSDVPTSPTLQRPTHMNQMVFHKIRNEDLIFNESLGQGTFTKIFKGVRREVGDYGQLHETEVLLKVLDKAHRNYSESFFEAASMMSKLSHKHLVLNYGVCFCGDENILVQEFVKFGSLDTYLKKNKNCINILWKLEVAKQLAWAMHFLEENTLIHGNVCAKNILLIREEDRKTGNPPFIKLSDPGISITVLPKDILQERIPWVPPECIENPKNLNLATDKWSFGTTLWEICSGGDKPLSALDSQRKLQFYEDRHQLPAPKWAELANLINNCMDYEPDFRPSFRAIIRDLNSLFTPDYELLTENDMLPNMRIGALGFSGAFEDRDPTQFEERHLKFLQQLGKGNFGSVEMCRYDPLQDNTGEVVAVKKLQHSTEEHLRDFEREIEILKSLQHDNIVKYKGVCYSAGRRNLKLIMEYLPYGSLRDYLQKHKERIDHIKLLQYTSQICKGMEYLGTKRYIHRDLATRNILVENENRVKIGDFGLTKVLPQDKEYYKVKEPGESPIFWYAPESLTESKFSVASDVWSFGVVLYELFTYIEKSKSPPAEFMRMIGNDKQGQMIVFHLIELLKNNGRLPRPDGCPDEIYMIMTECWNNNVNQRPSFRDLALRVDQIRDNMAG
Description: as §1

JAK2 = target: T3, JAK2 (Homo sapiens, UniProt O60674); experiment: JAK2 microfluidic kinase assay (Caliper EZ Reader II, FAM labeled peptide substrate)
T3 construct: purchased Carna Biosciences
T3 sequence (O60674 whole entry): as the sequence (O60674 whole entry V617F) above, with F617V counted along it
Description: as §1

[1] = IC50 JAK2 ([…]) (1 mM ATP), 1 mM ATP
[2] = IC50 JAK2 ([…]) (Km ATP), Km ATP

Compound	pIC50 (JAK1)	pIC50 (JAK2V617F)	pIC50 (JAK2; [1])	pIC50 (JAK2; [2])
N#CCNC(=O)c1ccc(-c2nc(Nc3cnn(C4CC4)c3)ncc2C(F)F)cc1 [Example 110, N-(cyanomethyl)-4-(2-((1-cyclopropyl-1H-pyrazol-4-yl)amino)-5-(difluoromethyl)pyrimidin-4-yl)benzamide]	6.82	6.26	–	–
Cc1cnc(Nc2cnn(CC(F)F)c2)nc1-c1ccc(C(=O)NCC#N)cc1 [Example 27, N-(Cyanomethyl)-4-(2-((1-(2,2-difluoroethyl)-1H-pyrazol-4-yl)amino)-5-methylpyrimidin-4-yl)benzamide]	–	6.98	7.30	8.71
CCC[C@@H](C#N)NC(=O)c1ccc(-c2nc(Nc3cnn(C4CC4)c3)ncc2C)cc1 [Example 202, (S)—N-(1-cyanobutyl)-4-(2-((1-cyclopropyl-1H-pyrazol-4-yl)amino)-5-methylpyrimidin-4-yl)benzamide]	8.53	7.62	–	–
Cc1cnc(Nc2cnn(C3CCOCC3)c2)nc1-c1ccc(C(=O)NCC(C)(C)C#N)cc1 [Example 133, N-(2-cyano-2-methylpropyl)-4-(5-methyl-2-((1-(tetrahydro-2H-pyran-4-yl)-1H-pyrazol-4-yl)amino)pyrimidin-4-yl)benzamide]	7.72	7.45	–	–
C[C@H](C#N)NC(=O)c1ccc(-c2nc(Nc3cnn(C4CCN(C)CC4)c3)ncc2F)cc1 [Example 63, (R)—N-(1-Cyanoethyl)-4-(5-fluoro-2-((1-(1-methylpiperidin-4-yl)-1H-pyrazol-4-yl)amino)pyrimidin-4-yl)benzamide]	6.53	6.07	–	–
Cc1cnc(Nc2cnn(C3CCC(F)(F)CC3)c2)nc1-c1ccc(C(=O)NCC#N)cc1 [Example 84, N-(cyanomethyl)-4-(2-((1-(4,4-difluorocyclohexyl)-1H-pyrazol-4-yl)amino)-5-methylpyrimidin-4-yl)benzamide]	7.96	7.88	–	–
Cc1cnc(Nc2cnn(CC(C)(C)C#N)c2)nc1-c1ccc(C(=O)NCC(F)(F)F)cc1 [Example 81, 4-(2-((1-(2-Cyano-2-methylpropyl)-1H-pyrazol-4-yl)amino)-5-methylpyrimidin-4-yl)-N-(2,2,2-trifluoroethyl)benzamide]	–	6.94	–	–
Cc1cnc(Nc2cnn(C3CCN(C(=O)C4(O)CC4)CC3)c2)nc1-c1ccc(C(=O)N[C@@H](C)C#N)cc1 [Example 79, (S)—N-(1-Cyanoethyl)-4-(2-((1-(1-(1-hydroxycyclopropanecarbonyl)piperidin-4=yl)-1H-pyrazol-4-yl)amino)-5-methylpyrimidin-4-yl)benzamide]	–	9.36	–	–
C[C@@H](C#N)NC(=O)c1ccc(-c2nc(Nc3cnn(C4CCN(C(=O)C(C)(C)C)CC4)c3)ncc2F)cc1 [Example 57, (S)—N-(1-cyanoethyl)-4-(5-fluoro-2-((1-(1-pivaloylpiperidin-4-yl)-1H-pyrazol-4-yl)amino)pyrimidin-4-yl)benzamide]	6.88	–	7.41	–
N#CCNC(=O)c1ccc(-c2nc(Nc3cnn(C4CCN(C(=O)C5CC5)CC4)c3)ncc2C(F)(F)F)cc1 [Example 161, N-(cyanomethyl)-4-(2-((1-(1-(cyclopropanecarbonyl)piperidin-4-yl)-1H-pyrazol-4-yl)amino)-5-(trifluoromethyl)pyrimidin-4-yl)benzamide]	< 5.30	–	< 5.30	–
N#CCNC(=O)c1ccc(-c2ccnc(Nc3cnn(C4CC4)c3)n2)cc1F [Example 139, N-(Cyanomethyl)-4-(2-((1-cyclopropyl-1H-pyrazol-4-yl)amino)pyrimidin-4-yl)-2-fluorobenzamide]	6.54	–	6.66	8.28
Cc1cnc(Nc2cnn(C)c2)nc1-c1ccc(C(=O)NCC2(O)CC2)cc1 [Example 32, N-((1-Hydroxycyclopropyl)methyl)-4-(5-methyl-2-((1-methyl-1H-pyrazol-4-yl)amino)pyrimidin-4-yl)benzamide]	7.28	–	6.78	8.29
